Laboratory results published in ChEMBL document CHEMBL1134008, “Cis- and trans-N-benzyl-octahydrobenzo[g]quinolines. Adrenergic and dopaminergic activity studies” (Bioorg Med Chem Lett, 2001).

Experiments:
Type in all cases: cell membranes, Membrane
[1] = target: T1, Adrenergic receptor alpha-1 (Rattus norvegicus, UniProt P15823+P23944+P43140); assay: Inhibition of binding of [3H]prazosin to Alpha-1 adrenergic receptor in rat cortical membranes
T1 sequence (P15823 whole entry): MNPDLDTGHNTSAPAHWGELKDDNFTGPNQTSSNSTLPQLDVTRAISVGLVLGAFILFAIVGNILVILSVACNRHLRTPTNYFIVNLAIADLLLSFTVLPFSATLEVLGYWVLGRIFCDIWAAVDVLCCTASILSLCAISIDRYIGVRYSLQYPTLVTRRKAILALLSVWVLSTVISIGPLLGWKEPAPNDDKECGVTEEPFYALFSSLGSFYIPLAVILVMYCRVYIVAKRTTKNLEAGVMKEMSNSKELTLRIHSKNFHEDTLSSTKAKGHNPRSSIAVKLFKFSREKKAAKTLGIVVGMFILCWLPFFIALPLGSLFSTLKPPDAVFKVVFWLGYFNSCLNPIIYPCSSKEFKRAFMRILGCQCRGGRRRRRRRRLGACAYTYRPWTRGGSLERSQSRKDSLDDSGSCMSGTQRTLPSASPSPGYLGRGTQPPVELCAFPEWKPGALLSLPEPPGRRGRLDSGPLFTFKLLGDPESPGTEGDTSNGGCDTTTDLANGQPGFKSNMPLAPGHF
T1 sequence (P23944 whole entry): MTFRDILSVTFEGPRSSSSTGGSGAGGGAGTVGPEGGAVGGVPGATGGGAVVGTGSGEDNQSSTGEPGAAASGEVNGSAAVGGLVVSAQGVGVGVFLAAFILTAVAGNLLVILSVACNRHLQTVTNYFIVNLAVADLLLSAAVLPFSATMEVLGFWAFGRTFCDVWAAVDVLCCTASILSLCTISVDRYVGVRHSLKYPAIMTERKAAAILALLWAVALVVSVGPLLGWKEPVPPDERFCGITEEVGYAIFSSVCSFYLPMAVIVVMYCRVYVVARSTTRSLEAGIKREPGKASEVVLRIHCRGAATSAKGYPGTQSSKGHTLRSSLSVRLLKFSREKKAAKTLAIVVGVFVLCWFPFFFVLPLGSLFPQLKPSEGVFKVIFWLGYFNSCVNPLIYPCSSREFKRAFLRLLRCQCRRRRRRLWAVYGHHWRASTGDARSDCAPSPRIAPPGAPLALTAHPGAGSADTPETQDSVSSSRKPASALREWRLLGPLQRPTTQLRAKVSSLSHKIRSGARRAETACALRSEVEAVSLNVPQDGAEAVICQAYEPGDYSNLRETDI
T1 sequence (P43140 whole entry): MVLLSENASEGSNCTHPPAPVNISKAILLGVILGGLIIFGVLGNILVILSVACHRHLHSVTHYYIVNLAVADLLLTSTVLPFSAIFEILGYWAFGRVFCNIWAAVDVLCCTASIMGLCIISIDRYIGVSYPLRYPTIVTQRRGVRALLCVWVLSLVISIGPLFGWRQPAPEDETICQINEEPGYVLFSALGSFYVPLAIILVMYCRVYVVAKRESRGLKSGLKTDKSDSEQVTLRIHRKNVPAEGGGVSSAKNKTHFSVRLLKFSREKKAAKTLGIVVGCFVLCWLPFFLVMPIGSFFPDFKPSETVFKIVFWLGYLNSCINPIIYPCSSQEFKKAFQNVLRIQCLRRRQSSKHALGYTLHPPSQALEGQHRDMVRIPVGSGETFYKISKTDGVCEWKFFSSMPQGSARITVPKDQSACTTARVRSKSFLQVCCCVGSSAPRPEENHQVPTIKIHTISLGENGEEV

D(1A) dopamine receptor [2] = target: T2, D(1A) dopamine receptor (Rattus norvegicus, UniProt P18901); assay: Inhibition of binding of [3H]SCH-23390 to Dopamine receptor D1 in rat striatal membranes
D(2) dopamine receptor [3] = target: T3, D(2) dopamine receptor (Rattus norvegicus, UniProt P61169); assay: Inhibition of binding of [3H]spiroperidol to Dopamine receptor D2 in rat striatal membranes at 5 uM concentration; NA is not active
[4] = target: T4, Adrenergic receptor alpha-2 (Rattus norvegicus, UniProt P22086+P19328+P22909); assay: Inhibition of binding of [3H]rauwolscine to Alpha-2 adrenergic receptor in rat cortical membranes
T4 sequence (P22086 whole entry): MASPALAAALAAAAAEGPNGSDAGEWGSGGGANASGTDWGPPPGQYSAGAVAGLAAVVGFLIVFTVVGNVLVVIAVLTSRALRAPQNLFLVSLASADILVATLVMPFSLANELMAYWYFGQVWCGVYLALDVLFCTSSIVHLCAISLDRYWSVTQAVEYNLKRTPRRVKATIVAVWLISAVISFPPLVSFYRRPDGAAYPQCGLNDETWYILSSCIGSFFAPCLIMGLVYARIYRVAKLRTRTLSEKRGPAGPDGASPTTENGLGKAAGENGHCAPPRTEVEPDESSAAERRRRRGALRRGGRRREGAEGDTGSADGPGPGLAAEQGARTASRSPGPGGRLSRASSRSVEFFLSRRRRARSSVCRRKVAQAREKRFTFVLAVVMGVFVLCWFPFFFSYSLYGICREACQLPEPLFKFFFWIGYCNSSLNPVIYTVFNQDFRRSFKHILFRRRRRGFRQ
T4 sequence (P19328 whole entry): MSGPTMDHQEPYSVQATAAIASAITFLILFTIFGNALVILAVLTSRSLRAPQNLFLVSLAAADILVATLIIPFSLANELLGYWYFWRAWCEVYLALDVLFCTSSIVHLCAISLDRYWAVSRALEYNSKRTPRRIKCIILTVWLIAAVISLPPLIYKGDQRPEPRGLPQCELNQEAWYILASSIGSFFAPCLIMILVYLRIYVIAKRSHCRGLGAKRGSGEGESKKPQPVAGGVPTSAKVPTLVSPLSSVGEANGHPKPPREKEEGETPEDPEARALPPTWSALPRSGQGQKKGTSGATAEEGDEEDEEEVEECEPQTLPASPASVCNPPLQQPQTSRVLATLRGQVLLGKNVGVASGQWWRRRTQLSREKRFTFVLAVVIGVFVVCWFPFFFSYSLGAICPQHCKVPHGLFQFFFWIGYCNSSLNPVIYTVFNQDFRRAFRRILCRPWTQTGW
T4 sequence (P22909 whole entry): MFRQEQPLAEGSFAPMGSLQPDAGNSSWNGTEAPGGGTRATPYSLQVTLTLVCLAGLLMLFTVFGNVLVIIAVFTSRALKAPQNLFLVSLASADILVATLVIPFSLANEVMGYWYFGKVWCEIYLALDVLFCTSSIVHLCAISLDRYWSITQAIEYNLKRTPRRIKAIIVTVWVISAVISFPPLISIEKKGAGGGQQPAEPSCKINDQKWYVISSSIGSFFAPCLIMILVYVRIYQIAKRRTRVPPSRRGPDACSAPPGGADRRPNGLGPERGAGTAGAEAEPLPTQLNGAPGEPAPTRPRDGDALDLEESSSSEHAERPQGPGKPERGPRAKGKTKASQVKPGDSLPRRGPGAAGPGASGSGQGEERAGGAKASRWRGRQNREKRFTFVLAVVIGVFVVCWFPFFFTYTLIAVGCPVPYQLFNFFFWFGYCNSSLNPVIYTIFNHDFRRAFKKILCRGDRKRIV

D(1A) dopamine receptor [5] = target: T2, D(1A) dopamine receptor; assay: Inhibition of binding of [3H]SCH-23390 to Dopamine receptor D1 in rat striatal membranes at 5 uM concentration; NA is not active
D(2) dopamine receptor [6] = target: T3, D(2) dopamine receptor; assay: Inhibition of binding of [3H]spiroperidol to Dopamine receptor D2 in rat striatal membranes

T2 sequence (P18901 whole entry): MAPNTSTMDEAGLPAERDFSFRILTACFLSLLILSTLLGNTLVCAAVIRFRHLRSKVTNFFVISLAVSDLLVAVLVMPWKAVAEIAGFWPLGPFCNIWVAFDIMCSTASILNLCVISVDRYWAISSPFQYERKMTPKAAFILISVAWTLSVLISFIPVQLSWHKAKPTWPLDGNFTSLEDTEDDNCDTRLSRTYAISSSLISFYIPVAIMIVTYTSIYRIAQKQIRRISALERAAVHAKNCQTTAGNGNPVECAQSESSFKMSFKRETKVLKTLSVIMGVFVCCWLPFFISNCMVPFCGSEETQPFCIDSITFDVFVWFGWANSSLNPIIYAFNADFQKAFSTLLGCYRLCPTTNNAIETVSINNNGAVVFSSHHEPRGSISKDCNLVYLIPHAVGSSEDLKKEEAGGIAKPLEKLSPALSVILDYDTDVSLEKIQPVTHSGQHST
T3 sequence (P61169 whole entry): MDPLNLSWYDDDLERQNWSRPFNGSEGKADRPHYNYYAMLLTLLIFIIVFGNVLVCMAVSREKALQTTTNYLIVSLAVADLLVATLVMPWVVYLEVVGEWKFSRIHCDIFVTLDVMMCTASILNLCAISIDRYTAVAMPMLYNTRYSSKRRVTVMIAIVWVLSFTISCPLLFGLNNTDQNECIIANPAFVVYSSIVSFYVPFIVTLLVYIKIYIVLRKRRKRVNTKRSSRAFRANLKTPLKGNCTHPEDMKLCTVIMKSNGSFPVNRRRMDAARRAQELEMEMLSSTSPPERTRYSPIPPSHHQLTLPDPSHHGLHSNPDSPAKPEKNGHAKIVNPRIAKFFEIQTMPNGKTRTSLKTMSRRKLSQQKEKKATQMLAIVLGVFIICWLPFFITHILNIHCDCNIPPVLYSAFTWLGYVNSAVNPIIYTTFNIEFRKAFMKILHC

Row | Structure (SMILES) | IC50 [1] [µM] | IC50 (D(1A) dopamine receptor [2]) [µM] | IC50 (D(2) dopamine receptor [3]) | IC50 [4] [µM] | IC50 (D(1A) dopamine receptor [5]) | IC50 (D(2) dopamine receptor [6]) [µM]
1 | c1ccc(CN2CCCC3Cc4ccccc4CC32)cc1 (stereo in doubt; trans) | 218 | 1.2 | Not Active | 5.9 | – | –
2 | COc1cccc2c1CC1CCCN(Cc3ccccc3)C1C2 (stereo in doubt; trans) | 588 | 0.45 | – | 6 | – | –
3 | c1ccc2c(c1)CC1CCCNC1C2 (stereo unspecified) | – | – | Not Active | 130 | Not Active | –
4 | c1ccc(CN2CCCC3Cc4ccccc4CC32)cc1 (stereo in doubt; cis) | 739 | – | – | 214 | Not Active | –
5 | COc1cccc2c1CC1CCCN(Cc3ccccc3)C1C2 (stereo in doubt; cis) | 667 | – | Not Active | 38 | Not Active | –
6 | NC1CCc2c(ccc(O)c2O)C1 (racemic) | – | – | – | – | – | 0.7
7 | COc1cccc2c1CC1CCCNC1C2 (trans isomer) | – | – | Not Active | 67.5 | Not Active | –
